Results taken from US20240124442A1, “TRICYCLIC-AMIDO-BICYCLIC PRMT5 INHIBITORS” (AMGEN INC., priority 2021, published 2024).

Tests used:
HCT116 MTAP null cells = experiment: HCT116 MTAP null cell line proliferation / cell viability (CellTiter-Glo, 6 days); assay type: cell-based; details: 144 h; HCT116 MTAP null cells, 6 days treatment, CellTiter-Glo cell viability; read-out: HCT-116 MTAP null IC50
Method in brief: (§1)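 Isogenic HCT116 pair (parental and MTAP-knockout) in RPMI 1640 + 10% FBS, treated 6 days with 8–9-point 1:3 dilutions from 1 or 10 μM top, or 22-point 1:2 dilutions from 10 or 50 μM top. Viability by CellTiter-Glo luminescence; IC50 from 4-parameter logistic fit or sigmoidal fit with Hill slope fixed at −1.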

HCT116 WT cells = experiment: HCT116 WT (parent) cell line proliferation / cell viability (CellTiter-Glo, 6 days); assay type: cell-based; details: Homo sapiens, HCT-116, 144 h, 6 days treatment
Method in brief: as §1

| SMILES | IC50 (HCT116 MTAP null cells) [nM] | IC50 (HCT116 WT cells) [nM] |
| --- | --- | --- |
| COc1ccc2c(c1)COC[C@H]2N(C)C(=O)c1cc2c3c(c(N)nc2cn1)[C@@H](C)OC3 [Example 269, (3R)-4-amino-N-((4S)-7-methoxy-3,4-dihydro-1H-2-benzopyran-4-yl)-N,3-dimeth-yl-1,3-dihydrofuro[3,4-c][1,7]-naphthyridine-8-carboxamide] | 39 | 2930 |
| CN(C(=O)c1ccc2nc(N)c3cnn(C)c3c2c1)[C@@H]1COc2cc(-c3cccc(C(F)(F)F)n3)ccc21 [Example 648, 4-amino-N,1-dimethyl-N-((3S)-6-(6-(trifluoromethyl)-2-pyridinyl)-2,3-dihydro-1-benzofuran-3-yl)-1H-pyrazolo[4,3-c]quinoline-8-carboxamide] | 30 | 1170 |
| CN(C(=O)c1cc2c(cn1)nc(N)c1cnn(C)c12)[C@@H]1COc2cc(S(F)(F)(F)(F)F)ccc21 [Example 240, 4-amino-N,1-dimethyl-N-((3S)-6-(pentafluoro-lambda~6~-sulfanyl)-2,3-dihydro-1-benzofuran-3-yl)-1H-pyrazolo[4,3-c][1,7]naph-thyridine-8-carboxamide] | 13 | 250 |
| CN(C(=O)c1cc2c(cn1)nc(N)c1ncncc12)[C@@H]1COc2cc(C(F)(F)F)ccc21 [Example 224, 5-amino-N-methyl-N-((3S)-6-(trifluoromethyl)-2,3-dihydro-1-benzofuran-3-yl)pyrimido-[4,5-c][1,7]naphthyridine-9-carboxamide] | 424 | 3600 |
| CN(C(=O)c1cc2c(cc1F)nc(N)c1cnn(C)c12)[C@H]1COCc2ncccc21 (single isomer, unassigned) [Example 424] | 593 | 18600 |
| CC(C)N(C(=O)c1cc2c3c(c(N)nc2cc1F)[C@@H](C)OC3)[C@@H]1COc2cc(C(F)(F)F)ccc21 [Example 468, (3R)-4-amino-7-fluoro-3-methyl-N-(2-propanyl)-N-((3S)-6-(trifluoromethyl)-2,3-dihydro-1-benzofuran-3-yl)-1,3-dihydrofuro[3,4-c]quinoline-8-carboxamide] | 114 | 2690 |
| Nc1nc2ccc(C(=O)N(C3CC3)[C@@H]3COc4cc(C(F)(F)F)ccc43)cc2c2c1COC2 [Example 448, 4-amino-N-cyclopropyl-N-((3S)-6-(trifluoromethyl)-2,3-dihydro-1-benzofuran-3-yl)-1,3-dihydrofuro[3,4-c]quinoline-8-carboxamide] | 58 | 3710 |
| CN(C(=O)c1cc2c(cc1F)nc(N)c1cnn(C)c12)C1CCOc2cc(C(F)(F)F)ccc21 (racemic) [Example 290, 4-amino-7-fluoro-N,1-dimethyl-N-((4R)-7-(trifluoromethyl)-3,4-dihydro-2H-chromen-4-yl)-1H-pyrazolo[4,3-c]quinoline-8-carboxamide and 4-amino-7-fluoro-N,1-dimethyl-N-((4S)-7-(trifluoromethyl)-3,4-dihydro-2H-chromen-4-yl)-1H-pyrazolo[4,3-c]quinoline-8-carboxamide] | 61 | 2460 |
| CN(C(=O)c1cc2c(cc1F)nc(N)c1cnn(C)c12)[C@H]1COc2cc(C(F)(F)F)cc(F)c21 (single isomer, unassigned) [Example 381] | 195 | 11100 |
| CN(C(=O)c1ccc2nc(N)c3cnn(C)c3c2c1)[C@@H]1COc2cc(OC(F)(F)F)ccc21 [Example 230, 4-amino-N,1-dimethyl-N-((3S)-6-(trifluoromethoxy)-2,3-dihydro-1-benzofuran-3-yl)-1H-pyrazolo[4,3-c]quinoline-8-carboxamide] | 7 | 530 |
| Nc1nc2cc(F)c(C(=O)N(C3CC3)[C@H]3COc4cc(C(F)(F)F)ccc43)cc2c2c1COC2 (single isomer, unassigned) [Example 555] | 1620 | 13300 |
| CN(C(=O)c1ccc2nc(N)c3cnn(C)c3c2c1)[C@@H]1COc2cc(Cl)ccc21 [Example 687, (S)-4-amino-N-(6-chloro-2,3-dihydrobenzofuran-3-yl)-N,1-dimethyl-1H-pyrazolo[4,3-c]quinoline-8-carboxamide 2,2,2-trifluoroacetate] | 12 | 846 |

The remaining molecules from weak to strong by IC50 (HCT116 MTAP null cells), led by results:

| IC50 (HCT116 MTAP null cells) [nM] | IC50 (HCT116 WT cells) [nM] | SMILES |
| --- | --- | --- |
| 1900 | 23400 | CN(C(=O)c1cc2c3c(c(N)nc2cc1F)COC3)[C@H]1COc2cc(Cl)ccc21 (single isomer, unassigned) [Example 348] |
| 965 | 9330 | CC(C)CN(C(=O)c1cc2c(cc1F)nc(N)c1c2cnn1C)[C@H]1COCc2nc(C(F)(F)F)ccc21 [Example 518, 4-amino-7-fluoro-3-methyl-N-(2-methylpropyl)-N-((5R)-2-(trifluoromethyl)-5,8-dihydro-6H-pyrano[3,4-b]pyridin-5-yl)-3H-pyrazolo[3,4-c]quinoline-8-carboxamide] |
| 728 | 11700 | Nc1nc2ccc(C(=O)N(CC3CC3)[C@H]3COc4cc(C(F)(F)F)ccc43)cc2c2c1COC2 (single isomer, unassigned) [Example 536] |
| 574 | 13900 | C[C@H]1OCc2c1c(N)nc1cc(F)c(C(=O)N(C3CCC3)[C@H]3COc4cc(C(F)(F)F)ccc43)cc21 [Example 471, (3R)-4-amino-N-cyclobutyl-7-fluoro-3-methyl-N-((3R)-6-(trifluoromethyl)-2,3-dihydro-1-benzofuran-3-yl)-1,3-dihydrofuro[3,4-c]quinoline-8-carboxamide] |
| 475 | 5970 | CN(C(=O)c1cc2c(cn1)nc(N)c1ncncc12)[C@@H]1COCc2nc(C(F)(F)F)ccc21 [Example 282, 5-amino-N-methyl-N-((5S)-2-(trifluoromethyl)-5,8-dihydro-6H-pyrano[3,4-b]pyridin-5-yl)-pyrimido[4,5-c][1,7]naphthyr-idine-9-carboxamide] |
| 107 | 8110 | CN(C(=O)c1ccc2nc(N)c3c(cnn3C)c2c1)[C@@H]1COCc2cc(C#N)ccc21 [Example 509, 4-amino-N-((4S)-7-cyano-3,4-dihydro-1H-2-benzopyran-4-yl)-N,3-dimethyl-3H-pyrazolo[3,4-c]quinoline-8-carboxamide] |
| 105 | 2770 | CN(C(=O)c1ccc2nc(N)c3c(c2c1)CSC3)[C@@H]1COc2cc(C(F)(F)F)ccc21 [Example 219, 4-amino-N-methyl-N-((3S)-6-(trifluoromethyl)-2,3-dihydro-1-benzofuran-3-yl)-1,3-dihydrothieno[3,4-c]quinoline-8-carboxamide] |
| 85 | 2920 | CN(C(=O)c1ccc2nc(N)c3cnn(C)c3c2c1)[C@@H]1COc2cc(-c3ccc(S(F)(F)(F)(F)F)cc3)ccc21 [Example 668, 4-amino-N,1-dimethyl-N-((3S)-6-(4-(pentafluoro-lambda~6~- sulfanyl)phenyl)-2,3-dihydro-1-benzofuran-3-yl)-1H-pyrazolo[4,3-c]quinoline-8-carboxamide] |
| 78 | 2630 | C[C@@H]1OC[C@H](N(C)C(=O)c2ccc3nc(N)c4cnn(C)c4c3c2)c2ccc(C(F)(F)F)cc21 (single isomer, unassigned) [Example 415] |
| 38 | 3580 | Cc1ccc2c(c1)OC[C@H]2N(C)C(=O)c1ccc2nc(N)c3cnn(C)c3c2c1 [Example 683, 4-amino-N,1-dimethyl-N-((3S)-6-methyl-2,3-dihydro-1-benzofuran-3-yl)-1H-pyrazolo[4,3-c]quinoline-8-carboxamide] |
| 36 | 1980 | Cc1nn(C)c2c1c(N)nc1cc(F)c(C(=O)N(C)[C@@H]3COc4cc(C(F)(F)F)ccc43)cc12 [Example 267, 4-amino-7-fluoro-N,1,3-trimethyl-N-((3S)-6-(trifluoro-methyl)-2,3-dihydro-1-benzo-furan-3-yl)-1H-pyrazolo[4,3-c]quinoline-8-carboxamide] |
| 25 | 1280 | CN(C(=O)c1ccc2nc(N)c3cnn(C)c3c2c1)[C@@H]1COc2cc(-c3cc(F)cc(OC(F)F)c3)ccc21 [Example 659, 4-amino-N-((3S)-6-(3-(difluoromethoxy)-5-fluorophenyl)-2,3-dihydro-1-benzofuran-3-yl)-N,1-dimethyl-1H-pyrazolo[4,3-c]quinoline-8-carboxamide] |
| 23 | 671 | CN(C(=O)c1cc2c3c(c(N)nc2cc1F)COC3)[C@@H]1COCc2nc(C(F)(F)F)ccc21 [Example 494, 4-amino-7-fluoro-N-methyl-N-((5S)-2-(trifluoromethyl)-5,8-dihydro-6H-pyrano[3,4-b]pyridin-5-yl)-1,3-dihydrofuro[3,4-c]quinoline-8-carboxamide] |
| 10 | 272 | CCN(C(=O)c1ccc2nc(N)c3c(c2c1)CO[C@@H]3C)[C@@H]1COCc2cc(Br)ccc21 (single isomer, unassigned) [Example 396] |
| 8 | 672 | Cc1cc(-c2ccc3c(c2)OC[C@H]3N(C)C(=O)c2ccc3nc(N)c4cnn(C)c4c3c2)on1 [Example 633, 4-amino-N,1-dimethyl-N-((3S)-6-(3-methyl-1,2-oxazol-5-yl)-2,3-dihydro-1-benzofuran-3-yl)-1H-pyrazolo[4,3-c]quinoline-8-carboxamide] |
| 6 | 155 | CN(C(=O)c1ccc2nc(N)c3cnn(C)c3c2c1)[C@@H]1COc2cc(S(F)(F)(F)(F)F)ccc21 (single isomer, unassigned) [Example 366] |
| 4 | 136 | CN(C(=O)c1ccc2nc(N)c3cnn(C)c3c2c1)[C@@H]1COc2cc(-c3ccncc3)ccc21 [Example 627, 4-amino-N,1-dimethyl-N-((3S)-6-(4-pyridinyl)-2,3-dihydro-1-benzofuran-3-yl)-1H-pyrazolo[4,3-c]quinoline-8-carboxamide] |
